Counter-ions that a name gives are not always drawn. Where only a bound is given, the exact number is not on record here.

The assay concerns the target T1, human B1 (Homo sapiens, UniProt P46663).
T1 construct: host or cells: CHO-K1
T1 sequence (P46663 1-353): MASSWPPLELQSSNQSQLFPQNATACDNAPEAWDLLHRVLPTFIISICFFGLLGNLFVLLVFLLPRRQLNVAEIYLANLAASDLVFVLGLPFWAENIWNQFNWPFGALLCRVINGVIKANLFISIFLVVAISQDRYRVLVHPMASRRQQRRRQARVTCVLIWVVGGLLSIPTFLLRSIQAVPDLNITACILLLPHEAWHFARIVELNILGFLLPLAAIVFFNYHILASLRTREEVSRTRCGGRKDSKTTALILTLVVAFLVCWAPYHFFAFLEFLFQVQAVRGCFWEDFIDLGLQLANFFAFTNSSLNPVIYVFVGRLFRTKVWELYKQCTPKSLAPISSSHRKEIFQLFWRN
In words: Calcium flux assay for Bradykinin B1 antagonist, CHO-K1 cell line expressing human B1. The note with it: CHO-K1 cells expressing human B1, agonist Lys-(Des-Arg)-Bradykinin, read-out: Potency (IC50 value against human B1). The assay is classed as cell-based. In a few lines:
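CHO-K1 cells expressing human B1, loaded with 5 μM Fluo-4AM (2 h, 37° C) in HEPES buffer pH 7.4 with probenecid and 0.1% BSA, were preincubated 30 min at 25° C with compound (8 concentrations, triplicate, 1% DMSO) before B1 agonist addition. Ca2+ fluorescence monitored at 538 nm; background-normalized integrated values plotted against log antagonist concentration.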
A general note: Calcium assays in cells follow changes in intracellular calcium, usually with a dye or a luminescent sensor.

For orientation: IC50 means the concentration at which inhibition is half-maximal. Regarding `COc1cc(C)c(S(=O)(=O)N(C)Cc2nnc(C(=O)N3CCN(Cc4ccnc(C)c4)CC3)o2)c(C)c1` [Ex 294, 4-Methoxy-N,2,6-trimethyl-N-{[5-({4-[(2-methylpyridin-4-yl)methyl]piperazin-1-yl}carbonyl)-1,3,4-oxadiazol-2-yl]methyl}benzenesulfonamide], the IC50 fell in the range of 10 to 100 nM.
As for `COc1cc(C)c(S(=O)(=O)N(C)Cc2nnc(C(=O)N3CCN(Cc4cccnc4N)CC3)o2)c(C)c1` [Ex 295, N-{[5-({4-[(2-Aminopyridin-3-yl)methyl]piperazin-1-yl}carbonyl)-1,3,4-oxadiazol-2-yl]methyl}-4-methoxy-N,2,6-trimethylbenzenesulfonamide], the figure is less than 10 nM.
Then `COc1cc(C)c(S(=O)(=O)N(C)Cc2nnc(C(=O)N3CCN(Cc4cnc5ccccc5c4)CC3)o2)c(C)c1` [Ex 296, 4-Methoxy-N,2,6-trimethyl-N-[(5-{[4-(quinolin-3-ylmethyl)piperazin-1-yl]carbonyl}-1,3,4-oxadiazol-2-yl)methyl]benzenesulfonamide], with less than 10 nM.
As for `COc1cc(C)c(S(=O)(=O)N(C)Cc2nnc(C(=O)N3CCN(Cc4ccc(Cl)nc4)CC3)o2)c(C)c1` [Ex 297, N-{[5-({4-[(6-Chloropyridin-3-yl)methyl]piperazin-1-yl}carbonyl)-1,3,4-oxadiazol-2-yl]methyl}-4-methoxy-N,2,6-trimethylbenzenesulfonamide], the IC50 is less than 10 nM.
As for `COc1cc(C)c(S(=O)(=O)N(C)Cc2noc(C(=O)N(C)Cc3ccc(CN4CCCC4)cc3)n2)c(C)c1` [Ex 300, 3-({[(4-Methoxy-2,6-dimethylphenyl)sulfonyl](methyl)amino}methyl)-N-methyl-N-[4-(pyrrolidin-1-ylmethyl)benzyl]-1,2,4-oxadiazole-5-carboxamide trifluoroacetamide], the figure is less than 10 nM.
Turning to `COc1cc(C)c(S(=O)(=O)N(C)Cc2noc(C(=O)N(C)CCc3ccc(C4=NCCN4)cc3)n2)c(C)c1` [Ex 301, N-{2-[4-(4,5-Dihydro-1H-imidazol-2-yl)phenyl]ethyl}-3-({[(4-methoxy-2,6-dimethylphenyl)sulfonyl](methyl)amino}methyl)-N-methyl-1,2,4-oxadiazole-5-carboxamide trifluoroacetamide], the IC50 is less than 10 nM.
As for `COc1cc(C)c(S(=O)(=O)N(C)Cc2noc(C(=O)N3CCN(C4CCN(C)CC4)CC3)n2)c(C)c1` [Ex 302, 4-Methoxy-N,2,6-trimethyl-N-[(5-{[4-(1-methylpiperidin-4-yl)piperazin-1-yl]carbonyl}-1,2,4-oxadiazol-3-yl)methyl]benzenesulfonamide trifluoroacetate], the figure is 100 to 1000 nM; as for `COc1cc(C)c(S(=O)(=O)N(C)Cc2noc(C(=O)N3CCN(CC4CCCN(C)C4)CC3)n2)c(C)c1` (stereo not drawn) [Ex 303, 4-Methoxy-N,2,6-trimethyl-N-{[5-({4-[(1-methylpiperidin-3-yl)methyl]piperazin-1-yl}carbonyl)-1,2,4-oxadiazol-3-yl]methyl}benzenesulfonamide trifluoroacetamide], 100 to 1000 nM; as for `COc1cc(C)c(S(=O)(=O)N(C)Cc2noc(C(=O)N3CCN(CCCN4CCCC4)CC3)n2)c(C)c1` [Ex 304, 4-Methoxy-N,2,6-trimethyl-N-[(5-{[4-(3-pyrrolidin-1-ylpropyl)piperazin-1-yl]carbonyl}-1,2,4-oxadiazol-3-yl)methyl]benzenesulfonamide trifluoroacetamide], 100 to 1000 nM.
As for `COc1cc(C)c(S(=O)(=O)N(C)Cc2noc(C(=O)N3CCN(CC4CCN(C)CC4)CC3)n2)c(C)c1` [Ex 305, 4-Methoxy-N,2,6-trimethyl-N-{[5-({4-[(1-methylpiperidin-4-yl)methyl]piperazin-1-yl}carbonyl)-1,2,4-oxadiazol-3-yl]methyl}benzenesulfonamide trifluoroacetate], the figure is less than 10 nM; as for `COc1cc(C)c(S(=O)(=O)N(Cc2noc(C(=O)N(C)Cc3ccc(CN4CCCC4)cc3)n2)C2CC2)c(C)c1` [Ex 306, 3-({Cyclopropyl[(4-methoxy-2,6-dimethylphenyl)sulfonyl]amino}methyl)-N-methyl-N-[4-(pyrrolidin-1-ylmethyl)benzyl]-1,2,4-oxadiazole-5-carboxamide trifluoroacetate], less than 10 nM.
Then `COc1cc(C)c(S(=O)(=O)N(Cc2noc(C(=O)N(C)Cc3nc(CN4CCCC4)cs3)n2)C2CC2)c(C)c1` [Ex 307, 3-({Cyclopropyl[(4-methoxy-2,6-dimethylphenyl)sulfonyl]amino}methyl)-N-methyl-N-{[4-(pyrrolidin-1-ylmethyl)-1,3-thiazol-2-yl]methyl}-1,2,4-oxadiazole-5-carboxamide trifluoroacetate], with 10 to 100 nM; and `COc1cc(C)c(S(=O)(=O)N(C)Cc2noc(C(=O)N3CCN(CCN4CCCC4)CC3)n2)c(C)c1` [Ex 308, 4-Methoxy-N,2,6-trimethyl-N-[(5-{[4-(2-pyrrolidin-1-ylethyl)piperazin-1-yl]carbonyl}-1,2,4-oxadiazol-3-yl)methyl]benzenesulfonamide], with 100 to 1000 nM; and `COc1cc(C)c(S(=O)(=O)N(C)Cc2noc(C(=O)N3CCN(CCCN(C)C)CC3)n2)c(C)c1` [Ex 309, N-{[5-({4-[3-(Dimethylamino)propyl]piperazin-1-yl}carbonyl)-1,2,4-oxadiazol-3-yl]methyl}-4-methoxy-N,2,6-trimethylbenzenesulfonamide], with 10 to 100 nM.
Take `COc1cc(C)c(S(=O)(=O)N(C)Cc2noc(C(=O)N3CCC(CCN4CCCC4)CC3)n2)c(C)c1` [Ex 310, 4-Methoxy-N,2,6-trimethyl-N-[(5-{[4-(2-pyrrolidin-1-ylethyl)piperidin-1-yl]carbonyl}-1,2,4-oxadiazol-3-yl)methyl]benzenesulfonamide]: the IC50 is less than 10 nM.
Then `COc1cc(C)c(S(=O)(=O)N(Cc2noc(C(=O)N3CCN(C4CCN(C)CC4)CC3)n2)C2CC2)c(C)c1` [Ex 311, N-Cyclopropyl-4-methoxy-2,6-dimethyl-N-[(5-{[4-(1-methylpiperidin-4-yl)piperazin-1-yl]carbonyl}-1,2,4-oxadiazol-3-yl)methyl]benzenesulfonamide], with less than 10 nM.
As for `COc1cc(C)c(S(=O)(=O)N(Cc2noc(C(=O)N3CCC(CCN4CCCC4)CC3)n2)C2CC2)c(C)c1` [Ex 312, N-Cyclopropyl-4-methoxy-2,6-dimethyl-N-[(5-{[4-(2-pyrrolidin-1-ylethyl)piperidin-1-yl]carbonyl}-1,2,4-oxadiazol-3-yl)methyl]benzenesulfonamide], the figure is less than 10 nM.
As for `COc1cc(C)c(S(=O)(=O)N(Cc2noc(C(=O)N(C)Cc3nnc(CN4CCCC4)s3)n2)C2CC2)c(C)c1` [Ex 313, 3-({Cyclopropyl[(4-methoxy-2,6-dimethylphenyl)sulfonyl]amino}methyl)-N-methyl-N-{[5-(pyrrolidin-1-ylmethyl)-1,3,4-thiadiazol-2-yl]methyl}-1,2,4-oxadiazole-5-carboxamide], the figure is less than 10 nM; as for `COc1cc(C)c(S(=O)(=O)N(Cc2noc(C(=O)N3CCN(CC4CCN(C)CC4)CC3)n2)C2CC2)c(C)c1` [Ex 314, N-Cyclopropyl-4-methoxy-2,6-dimethyl-N-{[5-({4-[(1-methylpiperidin-4-yl)methyl]piperazin-1-yl}carbonyl)-1,2,4-oxadiazol-3-yl]methyl}benzenesulfonamide], less than 10 nM.
On to `COc1cc(C)c(S(=O)(=O)N(Cc2noc(C(=O)N3CCN(CC4CCCN(C)C4)CC3)n2)C2CC2)c(C)c1` (stereo not drawn) [Ex 315, N-Cyclopropyl-4-methoxy-2,6-dimethyl-N-{[5-({4-[(1-methylpiperidin-3-yl)methyl]piperazin-1-yl}carbonyl)-1,2,4-oxadiazol-3-yl]methyl}benzenesulfonamide], for which the IC50 lay in the range of 10 to 100 nM.
As to `COc1cc(C)c(S(=O)(=O)N(Cc2noc(C(=O)N3CCN(CCCN(C)C)CC3)n2)C2CC2)c(C)c1` [Ex 316, N-Cyclopropyl-N-{[5-([4-[3-(dimethylamino)propyl]piperazin-1-yl]carbonyl)-1,2,4-oxadiazol-3-yl]methyl}-4-methoxy-2,6-dimethylbenzenesulfonamide], the IC50 lay within 10 to 100 nM.
As for `COc1cc(C)c(S(=O)(=O)N(Cc2noc(C(=O)N3CCN(CCCN4CCCC4)CC3)n2)C2CC2)c(C)c1` [Ex 317, N-Cyclopropyl-4-methoxy-2,6-dimethyl-N-[(5-{[4-(3-pyrrolidin-1-ylpropyl)piperazin-1-yl]carbonyl}-1,2,4-oxadiazol-3-yl)methyl]benzenesulfonamide], the figure is less than 10 nM; as for `COc1cc(C)c(S(=O)(=O)N(Cc2noc(C(=O)N3CCN(CCN4CCCC4)CC3)n2)C2CC2)c(C)c1` [Ex 318, N-Cyclopropyl-4-methoxy-2,6-dimethyl-N-[(5-{[4-(2-pyrrolidin-1-ylethyl)piperazin-1-yl]carbonyl}-1,2,4-oxadiazol-3-yl)methyl]benzenesulfonamide], 10 to 100 nM.
As for `COc1cc(C)c(S(=O)(=O)N(C)Cc2noc(C(=O)N3CCN(CCCCN(C)C)CC3)n2)c(C)c1` [Ex 319, N-{[5-({4-[4-(Dimethylamino)butyl]piperazin-1-yl}carbonyl)-1,2,4-oxadiazol-3-yl]methyl}-4-methoxy-N,2,6-trimethylbenzenesulfonamide trifluoroacetate], the figure is 100 to 1000 nM.

Source of the values: US8623859B2, “Bradykinin B1 antagonists” (Evotec AG, priority 2008, dated 2014).
